IC50, Ki and EC50 data for 23 compounds are collected here from ChEMBL document CHEMBL6092211, “Discovery and evaluation of novel SHIP-1 inhibitors” (Bioorg Med Chem, 2024).

The target in data set [1] is T1, Phosphatidylinositol 3,4,5-trisphosphate 5-phosphatase 1 (Homo sapiens, UniProt Q92835).
T1 sequence (Q92835 whole entry): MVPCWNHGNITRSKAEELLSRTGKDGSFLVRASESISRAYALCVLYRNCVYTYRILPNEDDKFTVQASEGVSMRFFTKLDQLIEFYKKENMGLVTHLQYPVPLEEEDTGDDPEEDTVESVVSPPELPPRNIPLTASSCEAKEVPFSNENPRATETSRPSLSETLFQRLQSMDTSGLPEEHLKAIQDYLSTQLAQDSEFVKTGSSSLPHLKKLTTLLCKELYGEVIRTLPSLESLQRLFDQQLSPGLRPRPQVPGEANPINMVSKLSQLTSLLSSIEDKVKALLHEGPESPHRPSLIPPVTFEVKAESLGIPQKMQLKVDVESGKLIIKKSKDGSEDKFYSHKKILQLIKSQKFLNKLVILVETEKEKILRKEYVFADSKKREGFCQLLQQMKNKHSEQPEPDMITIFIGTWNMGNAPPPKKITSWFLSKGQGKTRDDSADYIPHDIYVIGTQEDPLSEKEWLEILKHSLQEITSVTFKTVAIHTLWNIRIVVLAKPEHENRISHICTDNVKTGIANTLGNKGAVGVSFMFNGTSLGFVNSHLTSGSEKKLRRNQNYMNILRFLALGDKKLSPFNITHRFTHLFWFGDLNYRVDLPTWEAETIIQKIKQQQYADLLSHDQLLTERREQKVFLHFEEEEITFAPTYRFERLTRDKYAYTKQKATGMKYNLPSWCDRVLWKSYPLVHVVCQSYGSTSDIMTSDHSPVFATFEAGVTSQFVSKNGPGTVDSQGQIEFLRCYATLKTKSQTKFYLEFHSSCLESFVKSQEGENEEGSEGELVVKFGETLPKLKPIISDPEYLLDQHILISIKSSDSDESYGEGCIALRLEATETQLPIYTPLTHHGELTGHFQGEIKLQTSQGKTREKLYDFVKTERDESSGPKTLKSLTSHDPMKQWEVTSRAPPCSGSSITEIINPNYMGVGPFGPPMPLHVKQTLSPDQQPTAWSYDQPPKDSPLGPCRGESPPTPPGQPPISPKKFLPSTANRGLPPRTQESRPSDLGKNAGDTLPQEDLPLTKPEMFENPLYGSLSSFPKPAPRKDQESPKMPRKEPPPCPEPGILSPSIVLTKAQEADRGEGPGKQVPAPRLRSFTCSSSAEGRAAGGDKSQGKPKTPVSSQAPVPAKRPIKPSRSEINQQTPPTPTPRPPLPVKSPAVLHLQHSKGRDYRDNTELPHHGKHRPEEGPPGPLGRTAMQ
Briefly: Inhibition of SHIP-1 (unknown origin) using PtdIns(3,4,5)P3 as substrate by malachite green solution based […] analysis. In general terms: Fluorescence polarisation rises when a labelled molecule tumbles more slowly, as on binding a larger partner.

For data set [2], the target named is T1, Phosphatidylinositol 3,4,5-trisphosphate 5-phosphatase 1. Briefly: Inhibition of recombinant SHIP-1 (unknown origin) using PtdIns(3,4,5)P3 as substrate incubated for 30 mins by malachite green solution based analysis.
For data set [3], the target named is T2, Phosphatidylinositol 3,4,5-trisphosphate 5-phosphatase 2 (Homo sapiens, UniProt O15357).
T2 sequence (O15357 whole entry): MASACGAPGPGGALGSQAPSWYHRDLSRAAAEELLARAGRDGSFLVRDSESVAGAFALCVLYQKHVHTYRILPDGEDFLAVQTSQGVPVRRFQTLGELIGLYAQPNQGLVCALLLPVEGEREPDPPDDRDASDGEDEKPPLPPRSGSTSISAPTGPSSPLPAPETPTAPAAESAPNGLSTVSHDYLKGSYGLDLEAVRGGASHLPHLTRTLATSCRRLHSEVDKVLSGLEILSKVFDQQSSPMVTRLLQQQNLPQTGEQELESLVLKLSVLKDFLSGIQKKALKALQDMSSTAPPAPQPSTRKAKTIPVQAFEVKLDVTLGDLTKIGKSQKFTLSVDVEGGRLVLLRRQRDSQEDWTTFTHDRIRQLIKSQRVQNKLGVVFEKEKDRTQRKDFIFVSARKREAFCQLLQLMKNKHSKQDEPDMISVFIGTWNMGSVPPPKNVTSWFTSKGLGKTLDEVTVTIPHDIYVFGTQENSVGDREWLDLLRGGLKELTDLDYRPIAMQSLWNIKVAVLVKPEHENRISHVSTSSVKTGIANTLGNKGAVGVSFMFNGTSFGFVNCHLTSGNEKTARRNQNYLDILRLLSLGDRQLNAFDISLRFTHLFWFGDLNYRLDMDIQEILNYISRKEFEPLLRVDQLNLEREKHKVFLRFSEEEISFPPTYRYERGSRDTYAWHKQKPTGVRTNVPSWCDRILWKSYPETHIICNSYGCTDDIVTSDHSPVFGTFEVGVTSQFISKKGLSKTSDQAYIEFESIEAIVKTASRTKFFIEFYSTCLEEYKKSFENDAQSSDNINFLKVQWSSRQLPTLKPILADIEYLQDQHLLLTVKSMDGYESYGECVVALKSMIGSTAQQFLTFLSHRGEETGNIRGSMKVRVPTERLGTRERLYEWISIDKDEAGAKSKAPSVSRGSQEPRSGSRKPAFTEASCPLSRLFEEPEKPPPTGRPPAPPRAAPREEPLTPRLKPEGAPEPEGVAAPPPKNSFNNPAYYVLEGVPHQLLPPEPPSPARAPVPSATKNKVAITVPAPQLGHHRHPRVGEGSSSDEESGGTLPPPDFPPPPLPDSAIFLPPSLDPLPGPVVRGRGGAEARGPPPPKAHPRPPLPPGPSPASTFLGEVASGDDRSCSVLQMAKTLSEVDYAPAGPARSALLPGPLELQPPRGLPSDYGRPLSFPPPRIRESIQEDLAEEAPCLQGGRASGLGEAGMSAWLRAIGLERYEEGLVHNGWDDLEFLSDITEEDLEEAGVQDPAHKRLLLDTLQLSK
Put plainly: Inhibition of recombinant SHIP-2 (unknown origin) using PtdIns(3,4,5)P3 as substrate incubated for 30 mins by malachite green solution based analysis.

In data set [4] the target is T1, Phosphatidylinositol 3,4,5-trisphosphate 5-phosphatase 1. Put plainly: Inhibition of human SHIP-1 (397 to 715 residues) catalytic domain expressed in Rosetta DE3 BL21 cells using 1-(1,2-dioctanoylphosphatidyl) inositol-3,4,5-trisphosphate as substrate by malachite green based spectramax microplate reader analysis.
The nature of data set [5]: Cytotoxicity against human HMC3 cells assessed as cell count incubated for 48 hrs by Hoechst-33342 staining based analysis. The data set is classed as toxicity.
For data set [6], the target named is T1, Phosphatidylinositol 3,4,5-trisphosphate 5-phosphatase 1. Put plainly: Competitive inhibition of human SHIP-1 (397 to 715 residues) catalytic domain expressed in Rosetta DE3 BL21 cells assessed as inhibition constant by Lineweaver-Burk plot analysis. It counts as cell-based.
In data set [7] the test system is HMC3. Put plainly: cells. Particulars: Homo sapiens, HMC3, 48 h.
For data set [8], the system named is HMC3. Put plainly: cells. The following applies: Homo sapiens, HMC3, 48 h. The source holds these as a separate data set.
Data set [9] addresses T1, Phosphatidylinositol 3,4,5-trisphosphate 5-phosphatase 1. Put plainly: Inhibition of SHIP-1 (unknown origin) by malachite green solution based […] analysis.
For data set [10], the target named is T2, Phosphatidylinositol 3,4,5-trisphosphate 5-phosphatase 2. Put plainly: Inhibition of human SHIP-2 (420 to 732 residues) catalytic domain expressed in Rosetta DE3 BL21 cells using -(1,2-dioctanoylphosphatidyflinosito1-3,4,5-trisphosphate as substrate by malachite green based spectramax microplate reader analysis.

The structures appear in SMILES notation.

Take `CC(C)CCC[C@@H](C)[C@H]1CC[C@H]2[C@@H]3CC[C@H]4C[C@H](N)CC[C@]4(C)[C@H]3CC[C@]12C`: it took 13.9 µM to reach half-maximal inhibition in data set [1] (IC50).
Regarding `O[C@H](c1cc(C23CC4CC(CC(C4)C2)C3)nc2c(Cl)cc(Cl)cc12)[C@@H]1CCCCN1`, the IC50 – broadly, the concentration needed to halve the response being measured – in [2] came out at 63 µM; in data set [3] it was 35 µM.
On to `N#CC1=C2N=C(N)c3ccccc3N2C2=C(C(=O)CCC2)C1c1nc2ccccc2s1` (stereo not given), for which, in data set [4], the IC50 is greater than 40 µM.
Still for that read-out and setting: the result for `CC(C)c1ccc(C2C(C#N)=C3N=C(N)c4ccccc4N3C3=C2C(=O)CCC3)cc1` (stereo not given) reads 13.2 µM.
Regarding `N#CC1=C2N=C(N)c3ccccc3N2C2=C(C(=O)CCC2)C1c1cccc([N+](=O)[O-])c1` (stereo not given), in data set [4], the midpoint of inhibition, the IC50, lay at 36.7 µM.
Still for that read-out and setting: the result for `N#CC1=C2N=C(N)c3ccccc3N2C2=C(C(=O)CCC2)C1c1ccc(Cl)cc1Cl` (stereo not given) reads 39 µM.
Same read-out and setting: the result for `Cc1oc(-c2ccccc2Cl)nc1Cn1cccc1C1=NC(c2ccccc2)CO1` (stereo not given) reads 46.6 µM.
With `N#CC1=C2N=C(N)c3ccccc3N2C2=C(C(=O)CCC2)C1c1ccc(-c2ccccc2)cc1` (stereo not given), the IC50 at 48 h in data set [5] amounted to 19.9 µM. The compound further came in with an IC50 in data set [4] of 6.1 µM. In addition, the Ki – broadly, a dissociation constant, usually derived from enzyme kinetics or from competition with a known ligand – in data set [6] stood at 3.2 µM. The EC50 (usually the concentration at which the effect is half-maximal) with HMC3 [7] stood at 2 µM; in the data set on HMC3 [8] it was 20 µM.
In [4], `N#CC1=C2N=C(N)c3ccccc3N2C2=C(C(=O)CCC2)C1c1cc2ccccc2o1` (stereo not given) gave an IC50 of 28.2 µM.
On the same count and under the same terms, the result for `N#CC1=C2N=C(N)c3ccccc3N2C2=C(C(=O)CCC2)C1c1cccc(Cl)c1` (stereo not given) reads 15.4 µM.
Turning to `CSc1ccc2c(c1)c(CCN)c(C)n2Cc1ccccc1Cl`, the IC50 in [2] was found to be 500 µM.
Turning to `CC(C)c1ccc(C2C(C#N)=C3N=C(O)c4ccccc4N3C3=C2C(=O)CCC3)cc1` (stereo not given), the concentration for half-maximal inhibition (IC50) in data set [4] is 33.6 µM.
As for `CC1(C)CC(=O)C2=C(C1)N1C(=C(C#N)C2c2ccc(-c3ccccc3)cc2)N=C(N)c2ccccc21` (stereo not given), the IC50 in [4] is 17.7 µM.
With `CC(=O)C1=C(C)Nc2sc(C(=O)c3ccc(Cl)c(Cl)c3)c(N)c2C1c1cccnc1` (stereo not given), half-maximal inhibition in data set [4] (IC50) was put at 46.7 µM.
Same read-out and setting: to `CC(C)c1ccc(C2C(C#N)=C3N=C(N)c4ccccc4N3C3=C2C(=O)CC(C)(C)C3)cc1` (stereo not given) belongs 10.2 µM.
For the compound `C[C@@]12CCC[C@H]1[C@@H]1CC[C@H]3C[C@H](N)CC[C@]3(C)[C@H]1CC2`, it took 16 µM to reach half-maximal inhibition in [9] (IC50).
`N#CC1=C2N=C(N)c3ccccc3N2C2=C(C(=O)CCC2)C1c1cccnc1` (stereo not given) showed an IC50 in data set [4] of 65.5 µM.
Regarding `O[C@H](c1cc(-c2ccccc2)nc2c1ccc1ccccc12)[C@@H]1CCCCN1`, the 50% inhibitory concentration (IC50) in [2] and in [3] was 30 µM in each case.
As to `N#CC1=C2N=C(N)c3ccccc3N2C2=C(C(=O)CCC2)C1c1cc(Br)ccc1F` (stereo not given), in data set [4], the IC50 came to 23.4 µM.
For `C[C@@]12CCC[C@H]1[C@@H]1CC[C@H]3C[C@H](N)[C@H](N)C[C@]3(C)[C@H]1CC2`, it took 6 µM to reach half-maximal inhibition in [9] (IC50).
For `N#CC1=C2N=C(N)c3ccccc3N2C2=C(C(=O)CC(c3cccs3)C2)C1c1cccnc1` (stereo not given), the 50% inhibitory concentration (IC50) is 86.8 µM in data set [4] and greater than 200 µM in [10].
For `N#CC1=C2N=C(N)c3ccccc3N2C2=C(C(=O)CCC2)C1c1cc2ccccc2s1` (stereo not given), in [4], the IC50 was 40.2 µM.
Still for that read-out and setting: to `N#CC1=C2N=C(N)c3ccccc3N2C2=C(C(=O)CCC2)C1c1ccc(F)c(F)c1` (stereo not given) belongs greater than 40 µM.
